Here are results for 34 compounds from article PMC11855827, “High-Throughput Screening of Five Compound Libraries for Anthelmintic Activity and Toxicity Leads to the Discovery of Two Flavonoid Compounds” (International Journal of Molecular Sciences, 2025).

Where “and” joins values, the source holds several entries; their conditions need not be identical. Equal entries are not always repeated.

The test system of this assay is C. elegans. The conditions noted are these: Table S2, C. elegans SS assay, 110 μM, averages of 4 data points.

As for `O=C(/C=C/c1ccc(O)cc1)OC[C@H]1O[C@@H](Oc2c(-c3ccc(O)cc3)oc3cc(O)cc(O)c3c2=O)[C@H](O)[C@@H](O)[C@@H]1O` [Tribuloside], the “Percentage of motility inhibition 0 h” value is recorded as 13% and the “Percentage of motility inhibition 24 h” value is listed as 16%.

Regarding `Cc1c(O)c(O)cc2c1CC=C1[C@@]2(C)CC[C@@]2(C)[C@@H]3C[C@](C)(C(=O)O)CC[C@]3(C)CC[C@]12C` [Triptohypol C], the “Percentage of motility inhibition 0 h” value is 0% and the “Percentage of motility inhibition 24 h” value is 43%.

Regarding `CC(C)[C@]12O[C@H]1[C@@H]1O[C@@]13[C@@]1(C)CCC4=C(COC4=O)[C@@H]1C[C@@H]1O[C@@]13C2=O` [Triptonide], the “Percentage of motility inhibition 0 h” value was 7% and the “Percentage of motility inhibition 24 h” value was determined as 13%. Turning to `C[C@@H]1O[C@@H](OC[C@H]2O[C@@H](Oc3c(-c4ccc(OCCO)c(OCCO)c4)oc4cc(OCCO)cc(O)c4c3=O)[C@H](O)[C@@H](O)[C@@H]2O)[C@H](O)[C@H](O)[C@H]1O` [Troxerutin], the “Percentage of motility inhibition 0 h” value was 0% and 3%; the “Percentage of motility inhibition 24 h” value is 0% and 6%. As for `CC(=O)O[C@@H]1CC[C@]2(C)C3=C(CC[C@H]2C1(C)C)[C@]1(C)CC[C@H]([C@@H](CCC=C(C)C)C(=O)O)[C@@]1(C)CC3` [Tsugaric acid A], the “Percentage of motility inhibition 0 h” value amounted to 12% and the “Percentage of motility inhibition 24 h” value is listed as 12%. In the case of `C[C@@H]1O[C@H]2O[C@H]3[C@@H](OC[C@H](O)[C@@H]3O)OC(=O)[C@]34CCC(C)(C)C[C@H]3C3=CC[C@@H]5[C@@]6(C)C[C@H](O)[C@H](O[C@@H]7O[C@H](CO)[C@@H](O)[C@H](O)[C@H]7O[C@@H]7O[C@@H](COC(=O)C[C@](C)(O)CC(=O)O[C@@H]1[C@@H](O[C@@H]1OC[C@@H](O)[C@H](O)[C@H]1O)[C@H]2O)[C@H](O)[C@@H](O)[C@@H]7O)[C@@](C)(CO)[C@@H]6CC[C@@]5(C)[C@]3(C)C[C@H]4O` [Tubeimoside III], the “Percentage of motility inhibition 0 h” value is listed as 0% and the “Percentage of motility inhibition 24 h” value was 36%. Consider `CC1OC2OC3C(OCC(O)C3O)OC(=O)C34CCC(C)(C)CC3C3=CCC5C6(C)CC(O)C(OC7OC(CO)C(O)C(O)C7OC7OCC(OC(=O)CC(C)(O)CC(=O)OC1C(OC1OCC(O)C(O)C1O)C2O)C(O)C7O)C(C)(CO)C6CCC5(C)C3(C)CC4O` (stereo not drawn) [Tubeimoside II], for which the “Percentage of motility inhibition 0 h” value worked out at 0% and the “Percentage of motility inhibition 24 h” value stood at 2%.

Take `CCCNC[C@]1(O)[C@H](C)O[C@@H](O[C@H]2[C@H](C)[C@@H](O[C@@H]3O[C@H](C)C[C@H](N(C)C)[C@H]3O)[C@](C)(O)C[C@@H](C)CN[C@H](C)[C@@H](O)[C@](C)(O)[C@@H](CC)OC(=O)[C@@H]2C)C[C@@]1(C)OC` [Tulathromycin A]: the “Percentage of motility inhibition 0 h” value is on record as 20% and the “Percentage of motility inhibition 24 h” value turned out to be 9%. Turning to `C=C1[C@H](OC(=O)/C=C(\C)CC)C[C@@H](C(C)C)[C@@H]2[C@@H]([C@@H](C)OC(C)=O)C(=O)C[C@@H]12` [Tussilagone], the “Percentage of motility inhibition 0 h” value amounted to 12% and the “Percentage of motility inhibition 24 h” value was determined as 31%. On the same counts, the results for `CC[C@H]1OC(=O)C[C@@H](O)[C@H](C)[C@@H](O[C@@H]2O[C@H](C)[C@@H](O[C@H]3C[C@@](C)(O)[C@@H](O)[C@H](C)O3)[C@H](N(C)C)[C@H]2O)[C@@H](CC=O)C[C@@H](C)C(=O)/C=C/C(C)=C/[C@@H]1CO[C@@H]1O[C@H](C)[C@@H](O)[C@@H](OC)[C@H]1OC.O=C(O)C(O)C(O)C(=O)O` [Tylosin (tartr ate)] are 0% and 1%. In the same order, the values of `COc1cc(-c2oc3cc(O)cc(O)c3c(=O)c2O[C@@H]2O[C@H](CO[C@@H]3O[C@@H](C)[C@H](O)[C@@H](O)[C@H]3O)[C@@H](O)[C@H](O)[C@H]2O[C@@H]2O[C@@H](C)[C@H](O)[C@@H](O)[C@H]2O)ccc1O` [Typhaneoside] are 26% and 15%. Regarding `CC1=CC(=O)C2(C(C)C)CC12` (stereo not drawn) [Umbellulone], the “Percentage of motility inhibition 0 h” value is 0% and the “Percentage of motility inhibition 24 h” value came to 1%. In the same order, the values of `NC(N)=O` [Urea] are 10% and 13%. On the same counts, the results for `CC(=O)O[C@H]1CC[C@]2(C)[C@H]3CC=C4[C@@H]5[C@@H](C)[C@H](C)CC[C@]5(C(=O)O)CC[C@@]4(C)[C@]3(C)CC[C@H]2C1(C)C` [Ursolic acid acetate] are 24% and 18%. As for `C/C=C1\C[C@@H](C)[C@](O)(CO)C(=O)OCC2=CC[N+]3([O-])CC[C@@H](OC1=O)[C@@H]23` (stereo partly drawn) [Usaramine N‐oxide], the “Percentage of motility inhibition 0 h” value was 22% and 12%.

Take `C/C=C1\C[C@@H](C)[C@](O)(CO)C(=O)OCC2=CCN3CC[C@@H](OC1=O)[C@@H]23` [Usaramine]: the “Percentage of motility inhibition 0 h” value is 31% and the “Percentage of motility inhibition 24 h” value was determined as 21%.

Consider `O=c1cc(-c2ccc(O[C@@H]3O[C@H](CO)[C@@H](O)[C@H](O)[C@H]3O)cc2)oc2cc(O)c([C@@H]3O[C@H](CO)[C@@H](O)[C@H](O)[C@H]3O[C@@H]3OC[C@H](O)[C@H](O)[C@H]3O)c(O)c12` [Vaccarin], for which the “Percentage of motility inhibition 0 h” value was 0% and the “Percentage of motility inhibition 24 h” value is on record as 6%. In the same order, the values of `CC(C)[C@H](N)C(=O)OCCOCn1cnc2c(=O)nc(N)[nH]c21.Cl` [Valacyclovir (hydrochloride)] are 38% and 9%. Take `C=C(C)[C@@H]1CCC2=CCC[C@@H](C)[C@]2(C)C1` [Valencene]: the “Percentage of motility inhibition 0 h” value is listed as 3% and the “Percentage of motility inhibition 24 h” value turned out to be 4%.

For `CC(C)[C@H](N)C(=O)OCC(CO)OCn1cnc2c(=O)nc(N)[nH]c21.Cl` (stereo partly drawn) [Valganciclovir (hydrochloride)], the “Percentage of motility inhibition 0 h” value stood at 9% and the “Percentage of motility inhibition 24 h” value was determined as 0%.

Consider `COC(=O)CC(NC(=O)[C@@H](NC(=O)OC(C)C)C(C)C)c1ccc(Cl)cc1` (stereo partly drawn) [Valifenalate], for which the “Percentage of motility inhibition 0 h” value was found to be 26% and the “Percentage of motility inhibition 24 h” value turned out to be 3%. On the same counts, the results for `C=C[C@]1(C)C[C@@H](OC(=O)CSC(C)(C)CNC(=O)[C@H](N)C(C)C)[C@]2(C)[C@H](C)CC[C@]3(CCC(=O)[C@H]32)[C@@H](C)[C@@H]1O.Cl` [Valnemulin (Hydrochloride)] are 29% and 12%.

For `CN[C@H](CC(C)C)C(=O)N[C@H]1C(=O)N[C@@H](CC(N)=O)C(=O)N[C@H]2C(=O)N[C@H]3C(=O)N[C@H](C(=O)N[C@H](C(=O)O)c4cc(O)cc(O)c4-c4cc3ccc4O)[C@H](O)c3ccc(c(Cl)c3)Oc3cc2cc(c3O[C@@H]2O[C@H](CO)[C@@H](O)[C@H](O)[C@H]2O[C@H]2C[C@](C)(N)[C@H](O)[C@H](C)O2)Oc2ccc(cc2Cl)[C@H]1O.Cl` [Vancomycin (hydrochloride)], the “Percentage of motility inhibition 0 h” value worked out at 15% and the “Percentage of motility inhibition 24 h” value was found to be 0%. On the same counts, the results for `Cl.O[C@H]1CCN2Cc3ccccc3N=C12` [Vasicine (hydrochloride)] are 0% and 2%. On the same counts, the results for `O=c1c2ccccc2nc2n1CC[C@@H]2O` [Vasicinone] are 0% and 0%. On the same counts, the results for `COC(=O)C1=CO[C@@H](O[C@@H]2O[C@H](CO)[C@@H](O)[C@H](O)[C@H]2O)[C@H]2[C@@H]1C(=O)C[C@@H]2C` [Verbenalin] are 60% and 44%. Turning to `O=c1cc(-c2ccc(O)cc2)oc2c([C@@H]3O[C@H](CO)[C@@H](O)[C@H](O)[C@H]3O)c(O)c([C@@H]3O[C@H](CO)[C@@H](O)[C@H](O)[C@H]3O)c(O)c12` [Vicenin 2], the “Percentage of motility inhibition 0 h” value came to 0% and the “Percentage of motility inhibition 24 h” value came to 3%. On the same counts, the results for `O=c1cc(-c2ccc(O)cc2)oc2c([C@@H]3OC[C@@H](O)[C@H](O)[C@H]3O)c(O)c([C@@H]3O[C@H](CO)[C@@H](O)[C@H](O)[C@H]3O)c(O)c12` [Vicenin 3] are 15% and 3%. Take `CC[C@]1(O)C[C@@H]2CN(CCc3c([nH]c4ccccc34)[C@@](C(=O)OC)(c3cc4c(cc3OC)N(C)[C@H]3[C@@](O)(C(=O)OC)[C@H](OC(C)=O)[C@]5(CC)C=CCN6CC[C@]43[C@@H]65)C2)C1.O=S(=O)(O)O` [Vinblastine (sulfate)]: the “Percentage of motility inhibition 0 h” value was 0% and 8%; the “Percentage of motility inhibition 24 h” value was 0% and 1%. As for `CC[C@]1(O)C[C@H]2CN(CCc3c([nH]c4ccccc34)[C@@](C(=O)OC)(c3cc4c(cc3OC)N(C=O)[C@H]3[C@@](O)(C(=O)OC)[C@H](OC(C)=O)[C@]5(CC)C=CCN6CC[C@]43[C@@H]65)C2)C1.O=S(=O)(O)O` [Vincristine (sulfate)], the “Percentage of motility inhibition 0 h” value worked out at 0%; the “Percentage of motility inhibition 24 h” value is 0% and 7%.

As for `CCC1=C[C@@H]2CN(C1)Cc1c([nH]c3ccccc13)[C@@](C(=O)OC)(c1cc3c(cc1OC)N(C)[C@H]1[C@@](O)(C(=O)OC)[C@H](OC(C)=O)[C@]4(CC)C=CCN5CC[C@]31[C@@H]54)C2.O=C(O)C(O)C(O)C(=O)O.O=C(O)C(O)C(O)C(=O)O` [Vinorelbine (ditartrate)], the “Percentage of motility inhibition 0 h” value is 0%.

As to `C[C@@H]1O[C@@H](c2c(O)c([C@@H]3O[C@H](CO)[C@@H](O)[C@H](O)[C@H]3O)c(O)c3c(=O)cc(-c4ccc(O)cc4)oc23)[C@H](O)[C@H](O)[C@H]1O` [Violanthin], the “Percentage of motility inhibition 0 h” value is on record as 0% and the “Percentage of motility inhibition 24 h” value came out at 19%. In the same order, the values of `O=c1[nH]c2ccccc2c(-c2cccc(O)c2)c1O` [Viridicatol] are 0% and 0%.

`C[C@@H]1O[C@@H](O[C@@H]2[C@@H](O)[C@H](O)[C@@H](CO)O[C@H]2c2c(O)cc(O)c3c(=O)cc(-c4ccc(O)cc4)oc23)[C@H](O)[C@H](O)[C@H]1O` [Vitexin‐2"‐O‐rhamnoside]: the “Percentage of motility inhibition 0 h” value was found to be 2% and the “Percentage of motility inhibition 24 h” value is on record as 52%.
